Laboratory results: patent publication EP0275207A2, “Pharmaceutical and veterinary compositions” (priority 1987, dated 1988)

What was measured:
Trichophyton rubrum = test: 7 day growth test in phosphate buffered saline solution (ED 50 and ED 90); assay type: cell-based; details: for EDso and ED90 results against T. Rubrum: compared to those obtained using bis THP phosphite and THP sulphate; for Mg. growth (% of control) / Mg. growth dry weight / ED50 / ED90: 7 day test; for ED50 / ED90: ppm (Active Compound)
Text: The activity of 50% aqueous bis THP phosphite, 50% aqueous mono THP phosphite and 80% aqueous THP sulphate against Trichophyton rubrum were compared in a 7 day test in phosphate buffered saline solution to determine ED 50 and ED 90 values.

bacteria = test: Time-kill test (surviving organisms by plate count) in phosphate buffered saline, bacterial strains; assay type: cell-based; details: within 2 to 6 hours of exposure
Method: The following bacterial strains were used in the tests: • Streptococcus pyogenes NCTC 8198 • Streptococcus faecalis ATCC 19433 • Sarcina lutea ATCC 9341 • Proteus mirabilis NCTC 8559 • Proteus vulgaris NCTB 4175 • Klebsiella pneumoniae NCTC 10341 • Salmonella typhimurium NCTB 10258 • Salmonella enteritidis NCTC 6676 • Shigella boydii NCTC 9328 • Bacillus subtilus ATCC 6633 • Bacillus cereus ATCC 11778
Inocula for the bacterial strains were prepared from cultures on Tryptone soy agar (TSA, Oxoid CM 131) incubated at 37° C for 24 hours. […]
(§1) The test solutions as described in (5) above were prepared in 50 ml volumes and the test solutions plus a 100 ml volume of PBS (as control) were inoculated with appropriate volumes (0.5 to 1 ml) of the inocula prepared as described in (2) above, shaken to evenly distribute the inoculum and held at room temperature. Immediatedly after inoculation (time 0) and then at pre-determined times 0.1 ml aliquots were removed from the test and control solutions for counting. […]
(§2) Developing colonies were then counted and by reference to the appropriate dilution ratios the numbers of surviving organisms at each compound concentration/time point were calculated.

fungi = test: Time-kill test (surviving organisms by plate count) in phosphate buffered saline, yeast and fungal strains; assay type: cell-based; details: after 24 hours
Method: The following yeast and fungal strains were used in the tests: • Candida albicans ATCC 10231 • Candida tropicalis NCPF 3111 • Absidia corymbifera NCPF 2001 • Sporotrichum schenkii NCPF 3182 • Trichophyton rubrum NCPF 197 • Trichophyton mentagrophytes NCPF 351 • Microsporum Canis NCPF 351 • Penicillium funicolosum CMI 114933 • Aureobasidium pullulans CMI 45533
Inocula for the two yeast (Candida) strains wre prepared from cultures on Sabouraud dextrose agar (SDA Oxide CM 141) incubated at 37°C for 48 hours. Surface growth of the organisms was suspended in sterile physiological saline and standardised by plate counts to contain approximatedly 10^6 cfu/ml. […]
as §1, §2

protozoal infection = test: Treatment of fish pond with an infected Koi Carp; assay type: in vivo; details: 100 ppm dosed to the pond, concentration of 27 ppm in the pond water
Method: 100 ppm of 75% aqueous THP sulphate was dosed to the pond via the oxygenating venturi to provide a concentration of 27 ppm in the pond water.

Naegleria = test: In vitro kill of protozoon; assay type: cell-based

Compound: OC[P+](CO)(CO)CO [THP bromide]
- EDso and ED90 results against T. Rubrum (Trichophyton rubrum): substantially similar

Compound: OC[P+](CO)(CO)CO.[Cl-] [THP chloride, tetrakis (hydroxymethyl) phosphonium chloride]
- EDso and ED90 results against T. Rubrum (Trichophyton rubrum): substantially similar

Compound: THP acetate
- EDso and ED90 results against T. Rubrum (Trichophyton rubrum): substantially similar

Compound: THP borate
- EDso and ED90 results against T. Rubrum (Trichophyton rubrum): substantially similar

Compound: THP citrate
- EDso and ED90 results against T. Rubrum (Trichophyton rubrum): substantially similar

Compound: THP fluoride
- EDso and ED90 results against T. Rubrum (Trichophyton rubrum): substantially similar

Compound: THP lactate
- EDso and ED90 results against T. Rubrum (Trichophyton rubrum): substantially similar

Compound: THP tartrate
- EDso and ED90 results against T. Rubrum (Trichophyton rubrum): substantially similar

Compound: bis THP phosphate
- EDso and ED90 results against T. Rubrum (Trichophyton rubrum): substantially similar

Compound: bis THP phosphite [50% bis THP phosphite]
- Mg. growth (% of control) (Trichophyton rubrum; 5 ppm (Active Compound)): (82) % of control
- Mg. growth dry weight (Trichophyton rubrum; 5 ppm (Active Compound)): 8.7 Mg.
- Mg. growth (% of control) (Trichophyton rubrum; 15 ppm (Active Compound)): (20) % of control
- Mg. growth dry weight (Trichophyton rubrum; 15 ppm (Active Compound)): 2.1 Mg.
- Mg. growth (% of control) (Trichophyton rubrum; 50 ppm (Active Compound)): (0) % of control
- Mg. growth dry weight (Trichophyton rubrum; 50 ppm (Active Compound)): 0 Mg.
- Mg. growth (% of control) (Trichophyton rubrum; 150 ppm (Active Compound)): (0) % of control
- Mg. growth dry weight (Trichophyton rubrum; 150 ppm (Active Compound)): 0 Mg.
- Mg. growth (% of control) (Trichophyton rubrum; 500 ppm (Active Compound)): (0) % of control
- Mg. growth dry weight (Trichophyton rubrum; 500 ppm (Active Compound)): 0 Mg.
- ED50 (Trichophyton rubrum): 10 ppm
- ED90 (Trichophyton rubrum): 25 ppm

Compound: mono THP phosphite [50% THP phosphite]
- Mg. growth (% of control) (Trichophyton rubrum; 5 ppm (Active Compound)): (131) % of control
- Mg. growth dry weight (Trichophyton rubrum; 5 ppm (Active Compound)): 9.3 Mg.
- Mg. growth (% of control) (Trichophyton rubrum; 15 ppm (Active Compound)): (39) % of control
- Mg. growth dry weight (Trichophyton rubrum; 15 ppm (Active Compound)): 2.8 Mg.
- Mg. growth (% of control) (Trichophyton rubrum; 50 ppm (Active Compound)): (44) % of control
- Mg. growth dry weight (Trichophyton rubrum; 50 ppm (Active Compound)): 3.1 Mg.
- Mg. growth (% of control) (Trichophyton rubrum; 150 ppm (Active Compound)): (32) % of control
- Mg. growth dry weight (Trichophyton rubrum; 150 ppm (Active Compound)): 2.3 Mg.
- Mg. growth (% of control) (Trichophyton rubrum; 500 ppm (Active Compound)): (23) % of control
- Mg. growth dry weight (Trichophyton rubrum; 500 ppm (Active Compound)): 1.6 Mg.
- ED50 (Trichophyton rubrum): 11 ppm
- ED90 (Trichophyton rubrum): >500 ppm

Compound: tetrakis(hydroxymethyl) phosphonium sulphate
- concentration giving a high degree of lethal activity to bacteria (bacteria): at least 20 ppm
- concentration giving a high degree of lethal activity to the fungi (fungi): 100-150 ppm
- infection of the other fish (protozoal infection): none of the other fish became infected
- outcome for the infected fish (protozoal infection): recovered fully
- tolerability in fish (feeding, distress) (protozoal infection): no signs of distress

Compound: tetrakis(hydroxymethyl) phosphonium sulphate [80% THP Sulphate]
- Mg. growth (% of control) (Trichophyton rubrum; 8 ppm (Active Compound)): (92) % of control
- Mg. growth dry weight (Trichophyton rubrum; 8 ppm (Active Compound)): 7.3 Mg.
- Mg. growth (% of control) (Trichophyton rubrum; 24 ppm (Active Compound)): (0) % of control
- Mg. growth dry weight (Trichophyton rubrum; 24 ppm (Active Compound)): 0 Mg.
- Mg. growth (% of control) (Trichophyton rubrum; 80 ppm (Active Compound)): (0) % of control
- Mg. growth dry weight (Trichophyton rubrum; 80 ppm (Active Compound)): 0 Mg.
- Mg. growth (% of control) (Trichophyton rubrum; 240 ppm (Active Compound)): (0) % of control
- Mg. growth dry weight (Trichophyton rubrum; 240 ppm (Active Compound)): 0 Mg.
- Mg. growth (% of control) (Trichophyton rubrum; 800 ppm (Active Compound)): (0) % of control
- Mg. growth dry weight (Trichophyton rubrum; 800 ppm (Active Compound)): 0 Mg.
- ED50 (Trichophyton rubrum): 14 ppm
- ED90 (Trichophyton rubrum): 20 ppm

Compound: tetrakis(hydroxymethyl) phosphonium sulphate [THPS]
- concentration giving a complete in vitro kill of Naegleria (Naegleria): 15 ppm
